# Assay results published in article PMC12670405, “Second-Generation AURKA-Targeting PROTACs: Structural Optimization toward in Vivo Degradation in Neuroblastoma” (Journal of Medicinal Chemistry, 2025).
# How the values were obtained:
# Test in all cases: KINOMEscan scanMAX
# Type in all cases: binding
# Settings in all cases: read-out: Percent Control
# [1] = target: T1, EGFR(G719S) (Homo sapiens, UniProt P00533, G719S)
# T1 construct: purchased Eurofins Discovery (DiscoverX KINOMEscan scanMAX)
# Protocol: (§1) The kinome-wide binding assay was performed by Eurofins Discovery using the scanMAX screening platform. More information can be found on the Eurofins Discovery Web site.
# [2] = target: T2, CSNK1A1L (Homo sapiens, UniProt Q8N752)
# T2 construct: purchased Eurofins Discovery (DiscoverX KINOMEscan scanMAX)
# Protocol: as §1
# [3] = target: T3, MEK2 (Homo sapiens, UniProt P36507)
# T3 construct: purchased Eurofins Discovery (DiscoverX KINOMEscan scanMAX)
# Protocol: as §1
# [4] = target: T4, LIMK1 (Homo sapiens, UniProt P53667)
# T4 construct: purchased Eurofins Discovery (DiscoverX KINOMEscan scanMAX)
# Protocol: as §1
# [5] = target: T5, RPS6KA4(Kin.Dom.1-N-terminal) (Homo sapiens, UniProt O75676)
# T5 construct: RPS6KA4(Kin.Dom.1-N-terminal); purchased Eurofins Discovery (DiscoverX KINOMEscan scanMAX)
# Protocol: as §1
# [6] = target: T6, NEK1 (Homo sapiens, UniProt Q96PY6)
# T6 construct: purchased Eurofins Discovery (DiscoverX KINOMEscan scanMAX)
# Protocol: as §1
# [7] = target: T7, ABL1(Y253F)-phosphorylated (Homo sapiens, UniProt P00519, Y253F)
# T7 construct: purchased Eurofins Discovery (DiscoverX KINOMEscan scanMAX)
# Protocol: as §1
# [8] = target: T8, ABL1(E255K)-phosphorylated (Homo sapiens, UniProt P00519, E255K)
# T8 construct: purchased Eurofins Discovery (DiscoverX KINOMEscan scanMAX)
# Protocol: as §1
# [9] = target: T9, ABL1(H396P)-nonphosphorylated (Homo sapiens, UniProt P00519, H396P)
# T9 construct: purchased Eurofins Discovery (DiscoverX KINOMEscan scanMAX)
# Protocol: as §1
# [10] = target: T10, FES (Homo sapiens, UniProt P07332)
# T10 construct: purchased Eurofins Discovery (DiscoverX KINOMEscan scanMAX)
# Protocol: as §1
# [11] = target: T11, ZAP70 (Homo sapiens, UniProt P43403)
# T11 construct: purchased Eurofins Discovery (DiscoverX KINOMEscan scanMAX)
# Protocol: as §1
# [12] = target: T12, CAMKK1 (Homo sapiens, UniProt Q8N5S9)
# T12 construct: purchased Eurofins Discovery (DiscoverX KINOMEscan scanMAX)
# Protocol: as §1
# [13] = target: T13, YES (Homo sapiens, UniProt P07947)
# T13 construct: purchased Eurofins Discovery (DiscoverX KINOMEscan scanMAX)
# Protocol: as §1
# [14] = target: T14, ITK (Homo sapiens, UniProt Q08881)
# T14 construct: purchased Eurofins Discovery (DiscoverX KINOMEscan scanMAX)
# Protocol: as §1
# [15] = target: T15, FLT3 (Homo sapiens, UniProt P36888)
# T15 construct: purchased Eurofins Discovery (DiscoverX KINOMEscan scanMAX)
# Protocol: as §1
# [16] = target: T16, LRRK2 (Homo sapiens, UniProt Q5S007)
# T16 construct: purchased Eurofins Discovery (DiscoverX KINOMEscan scanMAX)
# Protocol: as §1
# [17] = target: T17, TGFBR2 (Homo sapiens, UniProt P37173)
# T17 construct: purchased Eurofins Discovery (DiscoverX KINOMEscan scanMAX)
# Protocol: as §1
# [18] = target: T18, LOK (Homo sapiens, UniProt O94804)
# T18 construct: purchased Eurofins Discovery (DiscoverX KINOMEscan scanMAX)
# Protocol: as §1
# [19] = target: T19, CDKL1 (Homo sapiens, UniProt Q00532)
# T19 construct: purchased Eurofins Discovery (DiscoverX KINOMEscan scanMAX)
# Protocol: as §1
# [20] = target: T20, CDKL3 (Homo sapiens, UniProt Q8IVW4)
# T20 construct: purchased Eurofins Discovery (DiscoverX KINOMEscan scanMAX)
# Protocol: as §1
# [21] = target: T21, PIP5K1C (Homo sapiens, UniProt O60331)
# T21 construct: purchased Eurofins Discovery (DiscoverX KINOMEscan scanMAX)
# Protocol: as §1
# [22] = target: T22, PIP5K1A (Homo sapiens, UniProt Q99755)
# T22 construct: purchased Eurofins Discovery (DiscoverX KINOMEscan scanMAX)
# Protocol: as §1
# [23] = target: T23, LIMK2 (Homo sapiens, UniProt P53671)
# T23 construct: purchased Eurofins Discovery (DiscoverX KINOMEscan scanMAX)
# Protocol: as §1
# [24] = target: T24, MARK4 (Homo sapiens, UniProt Q96L34)
# T24 construct: purchased Eurofins Discovery (DiscoverX KINOMEscan scanMAX)
# Protocol: as §1
# [25] = target: T25, CSNK1D (Homo sapiens, UniProt P48730)
# T25 construct: purchased Eurofins Discovery (DiscoverX KINOMEscan scanMAX)
# Protocol: as §1
# [26] = target: T26, CAMK1D (Homo sapiens, UniProt Q8IU85)
# T26 construct: purchased Eurofins Discovery (DiscoverX KINOMEscan scanMAX)
# Protocol: as §1
# [27] = target: T27, CDC2L5 (Homo sapiens, UniProt Q14004)
# T27 construct: purchased Eurofins Discovery (DiscoverX KINOMEscan scanMAX)
# Protocol: as §1
# [28] = target: T28, PFCDPK1(P.falciparum) (Plasmodium falciparum, UniProt P62344)
# T28 construct: purchased Eurofins Discovery (DiscoverX KINOMEscan scanMAX)
# Protocol: as §1
# [29] = target: T29, ABL1(F317L)-nonphosphorylated (Homo sapiens, UniProt P00519, F317L)
# T29 construct: purchased Eurofins Discovery (DiscoverX KINOMEscan scanMAX)
# Protocol: as §1
# [30] = target: T30, TSSK3 (Homo sapiens, UniProt Q96PN8)
# T30 construct: purchased Eurofins Discovery (DiscoverX KINOMEscan scanMAX)
# Protocol: as §1
# [31] = target: T31, BRAF(V600E) (Homo sapiens, UniProt P15056, V600E)
# T31 construct: purchased Eurofins Discovery (DiscoverX KINOMEscan scanMAX)
# Protocol: as §1
# [32] = target: T32, SRMS (Homo sapiens, UniProt Q9H3Y6)
# T32 construct: purchased Eurofins Discovery (DiscoverX KINOMEscan scanMAX)
# Protocol: as §1
# [33] = target: T33, TSSK1B (Homo sapiens, UniProt Q9BXA7)
# T33 construct: purchased Eurofins Discovery (DiscoverX KINOMEscan scanMAX)
# Protocol: as §1
# T11 sequence (P43403 whole entry): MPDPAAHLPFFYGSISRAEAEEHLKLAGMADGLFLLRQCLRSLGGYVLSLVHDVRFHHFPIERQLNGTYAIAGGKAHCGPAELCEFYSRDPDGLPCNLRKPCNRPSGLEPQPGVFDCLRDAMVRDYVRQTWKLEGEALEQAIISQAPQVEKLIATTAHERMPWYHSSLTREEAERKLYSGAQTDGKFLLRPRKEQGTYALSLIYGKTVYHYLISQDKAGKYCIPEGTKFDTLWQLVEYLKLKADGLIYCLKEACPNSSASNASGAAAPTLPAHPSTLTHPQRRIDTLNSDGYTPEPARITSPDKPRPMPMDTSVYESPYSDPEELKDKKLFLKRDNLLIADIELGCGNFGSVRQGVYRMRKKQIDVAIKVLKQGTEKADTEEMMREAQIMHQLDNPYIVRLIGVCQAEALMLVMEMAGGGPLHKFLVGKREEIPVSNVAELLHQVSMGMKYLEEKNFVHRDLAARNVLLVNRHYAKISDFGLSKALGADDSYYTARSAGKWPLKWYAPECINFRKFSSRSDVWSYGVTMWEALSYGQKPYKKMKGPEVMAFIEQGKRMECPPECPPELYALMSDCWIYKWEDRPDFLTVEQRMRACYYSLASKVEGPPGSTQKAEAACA
# T22 sequence (Q99755 whole entry): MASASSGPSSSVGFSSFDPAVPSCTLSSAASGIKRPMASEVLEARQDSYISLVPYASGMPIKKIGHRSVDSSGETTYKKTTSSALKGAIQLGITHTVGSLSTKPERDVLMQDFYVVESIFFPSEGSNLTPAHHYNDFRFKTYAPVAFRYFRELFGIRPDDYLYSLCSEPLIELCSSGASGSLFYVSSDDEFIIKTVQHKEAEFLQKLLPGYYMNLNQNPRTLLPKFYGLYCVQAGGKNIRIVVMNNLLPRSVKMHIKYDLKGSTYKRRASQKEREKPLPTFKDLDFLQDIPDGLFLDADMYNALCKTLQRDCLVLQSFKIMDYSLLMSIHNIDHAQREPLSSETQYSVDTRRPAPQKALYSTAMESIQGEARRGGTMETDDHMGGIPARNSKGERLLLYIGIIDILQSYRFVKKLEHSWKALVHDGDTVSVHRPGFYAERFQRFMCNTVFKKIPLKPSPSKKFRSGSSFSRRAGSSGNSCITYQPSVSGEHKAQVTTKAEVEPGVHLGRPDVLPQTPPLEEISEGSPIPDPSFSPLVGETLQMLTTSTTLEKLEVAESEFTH
# T31 sequence (P15056 whole entry V600E): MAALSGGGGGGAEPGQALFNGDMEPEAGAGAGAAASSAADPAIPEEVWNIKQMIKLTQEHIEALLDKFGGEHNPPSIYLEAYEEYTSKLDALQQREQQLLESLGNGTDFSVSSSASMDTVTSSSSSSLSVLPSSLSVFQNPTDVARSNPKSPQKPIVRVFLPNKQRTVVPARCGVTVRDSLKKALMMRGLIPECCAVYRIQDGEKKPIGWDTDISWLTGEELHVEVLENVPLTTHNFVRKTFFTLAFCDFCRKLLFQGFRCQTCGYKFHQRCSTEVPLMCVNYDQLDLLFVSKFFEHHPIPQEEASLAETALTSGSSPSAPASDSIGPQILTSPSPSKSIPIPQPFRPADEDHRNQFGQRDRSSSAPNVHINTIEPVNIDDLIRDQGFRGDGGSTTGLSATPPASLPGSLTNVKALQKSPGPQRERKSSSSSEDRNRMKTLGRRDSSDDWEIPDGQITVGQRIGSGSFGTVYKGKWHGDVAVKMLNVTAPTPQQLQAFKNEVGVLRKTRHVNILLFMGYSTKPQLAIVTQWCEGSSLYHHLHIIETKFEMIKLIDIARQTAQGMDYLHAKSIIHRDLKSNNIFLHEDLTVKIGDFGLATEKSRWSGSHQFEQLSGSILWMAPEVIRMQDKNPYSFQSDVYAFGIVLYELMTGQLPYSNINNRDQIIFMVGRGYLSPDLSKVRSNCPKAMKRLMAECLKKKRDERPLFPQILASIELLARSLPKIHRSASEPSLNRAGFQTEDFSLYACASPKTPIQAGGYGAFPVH
# T2 sequence (Q8N752 whole entry): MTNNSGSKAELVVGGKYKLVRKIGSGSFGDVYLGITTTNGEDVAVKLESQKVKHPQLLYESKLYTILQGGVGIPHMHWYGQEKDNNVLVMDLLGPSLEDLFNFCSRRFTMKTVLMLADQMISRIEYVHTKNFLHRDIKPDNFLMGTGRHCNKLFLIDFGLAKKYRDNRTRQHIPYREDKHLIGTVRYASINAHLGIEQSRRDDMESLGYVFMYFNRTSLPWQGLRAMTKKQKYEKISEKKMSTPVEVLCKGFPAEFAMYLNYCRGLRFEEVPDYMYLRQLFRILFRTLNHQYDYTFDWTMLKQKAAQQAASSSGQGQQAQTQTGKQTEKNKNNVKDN
# T28 sequence (P62344 whole entry): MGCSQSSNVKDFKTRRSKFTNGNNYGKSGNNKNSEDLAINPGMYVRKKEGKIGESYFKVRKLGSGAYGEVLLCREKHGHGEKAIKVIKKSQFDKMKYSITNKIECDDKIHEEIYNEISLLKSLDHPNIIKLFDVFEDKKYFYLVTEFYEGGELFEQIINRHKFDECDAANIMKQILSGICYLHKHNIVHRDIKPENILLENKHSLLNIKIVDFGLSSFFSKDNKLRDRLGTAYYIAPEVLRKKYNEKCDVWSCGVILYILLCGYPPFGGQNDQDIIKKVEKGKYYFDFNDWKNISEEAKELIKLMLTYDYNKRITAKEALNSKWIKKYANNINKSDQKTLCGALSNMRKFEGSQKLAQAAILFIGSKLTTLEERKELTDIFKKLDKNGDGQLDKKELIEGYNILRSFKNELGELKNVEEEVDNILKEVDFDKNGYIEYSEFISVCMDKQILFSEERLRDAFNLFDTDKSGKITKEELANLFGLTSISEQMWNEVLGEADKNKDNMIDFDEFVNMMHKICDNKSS
# T23 sequence (P53671 whole entry): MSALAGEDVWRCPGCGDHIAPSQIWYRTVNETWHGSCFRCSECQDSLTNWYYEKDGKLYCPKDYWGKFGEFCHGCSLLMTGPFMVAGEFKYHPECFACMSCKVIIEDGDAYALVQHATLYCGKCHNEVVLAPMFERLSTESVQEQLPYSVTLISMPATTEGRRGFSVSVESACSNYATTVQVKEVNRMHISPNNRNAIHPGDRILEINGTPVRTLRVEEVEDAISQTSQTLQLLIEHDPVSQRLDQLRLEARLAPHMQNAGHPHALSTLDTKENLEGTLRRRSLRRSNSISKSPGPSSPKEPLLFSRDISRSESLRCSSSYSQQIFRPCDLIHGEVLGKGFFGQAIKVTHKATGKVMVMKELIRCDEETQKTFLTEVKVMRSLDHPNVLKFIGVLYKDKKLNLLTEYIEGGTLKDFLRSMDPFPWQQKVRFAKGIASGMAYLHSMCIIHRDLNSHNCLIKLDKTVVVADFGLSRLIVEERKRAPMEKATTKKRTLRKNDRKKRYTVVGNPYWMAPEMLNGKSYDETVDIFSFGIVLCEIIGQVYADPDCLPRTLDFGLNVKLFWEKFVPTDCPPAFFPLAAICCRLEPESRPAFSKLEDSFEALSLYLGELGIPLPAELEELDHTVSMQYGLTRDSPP
# T21 sequence (O60331 whole entry): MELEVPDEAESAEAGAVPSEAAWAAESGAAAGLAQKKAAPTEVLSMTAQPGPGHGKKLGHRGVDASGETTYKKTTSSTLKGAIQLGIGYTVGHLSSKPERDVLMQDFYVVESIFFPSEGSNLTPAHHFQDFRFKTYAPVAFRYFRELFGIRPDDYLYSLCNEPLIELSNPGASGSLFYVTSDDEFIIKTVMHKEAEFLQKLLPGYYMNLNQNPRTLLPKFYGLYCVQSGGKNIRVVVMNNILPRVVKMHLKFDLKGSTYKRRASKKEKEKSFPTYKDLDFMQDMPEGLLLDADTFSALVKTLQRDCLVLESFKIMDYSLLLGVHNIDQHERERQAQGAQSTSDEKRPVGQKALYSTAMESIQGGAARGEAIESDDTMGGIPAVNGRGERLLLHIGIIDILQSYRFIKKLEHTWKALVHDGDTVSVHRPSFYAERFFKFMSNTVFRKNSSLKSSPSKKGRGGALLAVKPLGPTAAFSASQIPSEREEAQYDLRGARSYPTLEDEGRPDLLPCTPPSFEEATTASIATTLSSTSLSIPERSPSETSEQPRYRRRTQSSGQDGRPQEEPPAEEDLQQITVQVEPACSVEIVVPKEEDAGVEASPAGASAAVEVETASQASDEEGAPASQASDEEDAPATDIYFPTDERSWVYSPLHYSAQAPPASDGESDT
# T30 sequence (Q96PN8 whole entry): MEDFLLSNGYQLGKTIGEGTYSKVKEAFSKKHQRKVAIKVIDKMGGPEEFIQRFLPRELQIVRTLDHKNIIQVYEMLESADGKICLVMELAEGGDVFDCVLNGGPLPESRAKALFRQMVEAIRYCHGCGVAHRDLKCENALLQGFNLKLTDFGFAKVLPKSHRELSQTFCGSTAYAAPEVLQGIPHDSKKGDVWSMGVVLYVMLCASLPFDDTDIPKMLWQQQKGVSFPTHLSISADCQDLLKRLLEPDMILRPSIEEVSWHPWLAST
# T32 sequence (Q9H3Y6 whole entry): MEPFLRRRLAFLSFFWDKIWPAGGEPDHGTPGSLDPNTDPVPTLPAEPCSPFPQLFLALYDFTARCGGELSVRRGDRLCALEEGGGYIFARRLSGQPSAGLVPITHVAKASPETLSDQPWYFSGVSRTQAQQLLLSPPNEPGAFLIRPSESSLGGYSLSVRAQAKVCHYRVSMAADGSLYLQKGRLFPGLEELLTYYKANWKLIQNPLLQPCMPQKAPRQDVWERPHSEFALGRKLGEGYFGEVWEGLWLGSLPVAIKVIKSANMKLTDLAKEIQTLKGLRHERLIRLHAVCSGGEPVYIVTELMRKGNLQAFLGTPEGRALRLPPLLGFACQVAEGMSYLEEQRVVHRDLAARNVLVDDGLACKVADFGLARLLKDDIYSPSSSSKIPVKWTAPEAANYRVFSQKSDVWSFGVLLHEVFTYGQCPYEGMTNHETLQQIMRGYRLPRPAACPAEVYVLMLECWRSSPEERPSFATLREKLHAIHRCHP
compound,measurement,setting,value
Cc1cc(Nc2ccc(F)c(CC3(C(=O)N4CCC(F)(CN5CCN(c6ccc(N7CCC(=O)NC7=O)cn6)CC5)CC4)CCN(Cc4cccc(Cl)c4F)CC3)n2)n[nH]1 [SK5527],remaining binding at 0.1 µM,[1]; 100 nM,94%
same,remaining binding at 1 µM,[1]; 1000 nM,100%
same,remaining binding at 0.1 µM,[2]; 100 nM,91%
same,remaining binding at 1 µM,[2]; 1000 nM,87%
same,remaining binding at 0.1 µM,[3]; 100 nM,80%
same,remaining binding at 1 µM,[3]; 1000 nM,81%
same,remaining binding at 0.1 µM,[4]; 100 nM,88%
same,remaining binding at 1 µM,[4]; 1000 nM,96%
same,remaining binding at 0.1 µM,[5]; 100 nM,90%
same,remaining binding at 1 µM,[5]; 1000 nM,95%
same,remaining binding at 0.1 µM,[6]; 100 nM,100%
same,remaining binding at 1 µM,[6]; 1000 nM,86%
same,remaining binding at 0.1 µM,[7]; 100 nM,63%
same,remaining binding at 1 µM,[7]; 1000 nM,36%
same,remaining binding at 0.1 µM,[8]; 100 nM,88%
same,remaining binding at 1 µM,[8]; 1000 nM,62%
same,remaining binding at 0.1 µM,[9]; 100 nM,68%
same,remaining binding at 1 µM,[9]; 1000 nM,19%
same,remaining binding at 0.1 µM,[10]; 100 nM,100%
same,remaining binding at 1 µM,[10]; 1000 nM,100%
same,remaining binding at 0.1 µM,[11]; 100 nM,97%
same,remaining binding at 1 µM,[11]; 1000 nM,100%
same,remaining binding at 0.1 µM,[12]; 100 nM,100%
same,remaining binding at 1 µM,[12]; 1000 nM,100%
same,remaining binding at 0.1 µM,[13]; 100 nM,73%
same,remaining binding at 1 µM,[13]; 1000 nM,70%
same,remaining binding at 0.1 µM,[14]; 100 nM,100%
same,remaining binding at 1 µM,[14]; 1000 nM,81%
same,remaining binding at 0.1 µM,[15]; 100 nM,90%
same,remaining binding at 1 µM,[15]; 1000 nM,77%
same,remaining binding at 0.1 µM,[16]; 100 nM,100%
same,remaining binding at 1 µM,[16]; 1000 nM,94%
same,remaining binding at 0.1 µM,[17]; 100 nM,100%
same,remaining binding at 1 µM,[17]; 1000 nM,100%
same,remaining binding at 0.1 µM,[18]; 100 nM,100%
same,remaining binding at 1 µM,[18]; 1000 nM,100%
same,remaining binding at 0.1 µM,[19]; 100 nM,99%
same,remaining binding at 1 µM,[19]; 1000 nM,94%
same,remaining binding at 0.1 µM,[20]; 100 nM,100%
same,remaining binding at 1 µM,[20]; 1000 nM,83%
same,remaining binding at 0.1 µM,[21]; 100 nM,100%
same,remaining binding at 1 µM,[21]; 1000 nM,94%
same,remaining binding at 0.1 µM,[22]; 100 nM,70%
same,remaining binding at 1 µM,[22]; 1000 nM,76%
same,remaining binding at 0.1 µM,[23]; 100 nM,100%
same,remaining binding at 1 µM,[23]; 1000 nM,98%
same,remaining binding at 0.1 µM,[24]; 100 nM,100%
same,remaining binding at 1 µM,[24]; 1000 nM,100%
same,remaining binding at 0.1 µM,[25]; 100 nM,98%
same,remaining binding at 1 µM,[25]; 1000 nM,91%
same,remaining binding at 0.1 µM,[26]; 100 nM,100%
same,remaining binding at 1 µM,[26]; 1000 nM,100%
same,remaining binding at 0.1 µM,[27]; 100 nM,82%
same,remaining binding at 1 µM,[27]; 1000 nM,73%
same,remaining binding at 0.1 µM,[28]; 100 nM,87%
same,remaining binding at 1 µM,[28]; 1000 nM,81%
same,remaining binding at 0.1 µM,[29]; 100 nM,97%
same,remaining binding at 1 µM,[29]; 1000 nM,49%
same,remaining binding at 0.1 µM,[30]; 100 nM,95%
same,remaining binding at 1 µM,[30]; 1000 nM,99%
same,remaining binding at 0.1 µM,[31]; 100 nM,100%
same,remaining binding at 1 µM,[31]; 1000 nM,100%
same,remaining binding at 0.1 µM,[32]; 100 nM,90%
same,remaining binding at 1 µM,[32]; 1000 nM,82%
same,remaining binding at 0.1 µM,[33]; 100 nM,100%
same,remaining binding at 1 µM,[33]; 1000 nM,100%
